Data on 4 compounds can be found in patent US20250222128A1, “ANTIBODY DRUG-CONJUGATES TARGETING C-MET AND METHODS OF USE THEREOF” (Zymeworks BC Inc., priority 2022, published 2025).

Where two headings read alike, the source gives them in different places.

One assay relates to SW48 (colorectal cancer). Nature of the assay: In vitro cytotoxicity (cell growth inhibition, CellTiter-Glo). Type of assay: cell-based. The settings on record: Homo sapiens, 4-5 days, Table 6.1, read-out: EC50 (nM) - DAR corrected. The procedure:
(§1) The cell growth inhibition (cytotoxicity) capabilities of anti-cMet ADCs comprising variant v17427 (HetFc, unmodified hinge) conjugated to Drug-Linker 001 or MCvcPABC-MMAE by stochastic cysteine conjugation at an average DAR 4 were determined in a panel of four cMet-expressing cell lines as described below. The cell lines were EBC-1 (lung squamous cell carcinoma), H292 (lung carcinoma), BT-20 (breast cancer) and SW48 (colorectal cancer).
(§2) Briefly, cells were seeded in 384-well plates at 1,000-1,500 cells/well density and treated with a titration of test article, generated in complete cell growth medium. Treated cells were incubated for 4-5 days under standard culturing conditions (37° C./5% CO2). After incubation, CellTiter-Glo® reagent (Promega Corporation, Madison, WI; Cat. No. G7570) was spiked into each well and luminescence corresponding to ATP present in each well was measured using a Synergy™ H1 microplate (BioTek Instruments, Winooski, VT). Based on blank wells (no test article added, only blank media), % cytotoxicity values were calculated using ATP measurement RLU values (Relative Light Units) and plotted against test article concentration using GraphPad Prism 8 software (GraphPad Software, San Diego, CA).
In general terms: ATP-based viability assays read luminescence as a measure of living cells.

In a further assay the test system is H292 (lung carcinoma). Described as above. Type of assay: cell-based. On the procedure: as §1, §2
(§3) Cytotoxicity was determined as described in Example 6 with treated cells (1,000 cells/well) being incubated for 4 days under standard culturing conditions (37° C./5% CO2).
(§4) The cell growth inhibition capabilities of ADCs comprising anti-cMet antibodies with either a HomoFc or HetFc backbone (v32634 and v17427, respectively) conjugated to Drug-Linker 002 by stochastic lysine conjugation at approximately DAR 4 and DAR 6 were assessed in a panel of four cMet-expressing tumour cell lines and one cMet-negative cell line. The anti-RSV antibody, palivizumab (v22277), conjugated to Drug-Linker 002 at DAR 3.7, and free payload (Compound 1), were used as controls. Cytotoxicity was determined as described in Example 8. Cell lines were SNU-5 (gastric carcinoma), EBC-1 (lung squamous cell carcinoma), H1975 (non-small cell lung cancer), H292 (lung carcinoma) and cMet-negative T-47D (breast cancer).
(§5) The cell growth inhibition capabilities of site-specific cysteine-conjugated ADCs comprising various cysteine insertion antibody variants conjugated to Drug-Linker 001 at approximately DAR 1, 2 or 3, were assessed in a panel of four cMet-expressing tumour cell lines, SNU-5 (gastric carcinoma), EBC-1 (lung squamous cell carcinoma), H292 (lung carcinoma) and H1975 (non-small cell lung cancer), and one cMet-negative cell line, T-47D (breast carcinoma). An ADC comprising the anti-RSV antibody palivizumab (v22277) conjugated to Drug-Linker 001 at approximately DAR 4 was used as a non-targeted control. […] Cytotoxicity was determined as described in Example 7.
(§6) The cell growth inhibition capabilities of ADCs comprising variant v29001, having two cysteine insertions, conjugated to multivalent Drug-Linker 003 or multivalent Drug-Linker 004, were assessed in a panel of cMet-expressing tumour cell lines together with ADCs comprising parental variant v17427 conjugated to the monovalent Drug-Linker 002 at DAR 4 or DAR 6. Cell lines used were SNU-5 (gastric carcinoma), EBC-1 (lung squamous cell carcinoma), H292 (lung carcinoma), H1975 (non-small cell lung cancer) and T-47D (breast carcinoma, cMet-negative). ADCs comprising the anti-RSV antibody palivizumab (v22277) conjugated to Drug-Linker 002 were used as non-targeted controls. Free payload Compound 1 was also included as a control. Cytotoxicity was determined as described in Example 8.

In assay [1] the test system is EBC-1 (lung squamous cell carcinoma). The description is as above. Type of assay: cell-based. The procedure: as §1, §2, §3, §4, §5, §6
Assay [2] deals with H1975 (non-small cell lung cancer). The description is as above. Type of assay: cell-based. The procedure: as §2
(§7) The cell growth inhibition capabilities of anti-cMet ADCs comprising variant v17427 (HetFc, unmodified hinge) conjugated to Drug-Linker 002 by stochastic lysine conjugation at DARs ranging from DAR 2 to DAR 6 were determined in a panel of seven cMet-expressing cell lines. Variant v17427 conjugated to MCvcPABC-MMAE drug linker at DAR 4, and anti-RSV antibody, palivizumab (v22277), conjugated to Drug-Linker 002 or MCvcPABC-MMAE at DAR 4, were used as controls. Cell lines were SNU-5 (gastric carcinoma), EBC-1 (lung squamous cell carcinoma), HCC827 (lung cancer), H1975 (non-small cell lung cancer), HCT-116 (colorectal cancer), H292 (lung carcinoma) and BT-20 (breast cancer).
as §3, §4, §6

Assay [3] has as its system SNU-5 (gastric carcinoma). The description is as above. The class given is cell-based. The following applies: 4 days. The procedure: as §2, §7, §3, §4, §6
The subject of assay [4] is cMet-negative T-47D (breast cancer). Described as above. The class given is cell-based. The settings on record: Homo sapiens, T47D, 96 h. On the procedure:
as §2, §3
The cell growth inhibition capabilities of ADCs comprising anti-cMet antibodies with either a HomoFc or HetFc backbone (v32634 and v17427, respectively) conjugated to Drug-Linker 002 by stochastic lysine conjugation at approximately DAR 4 and DAR 6 were assessed in a panel of four cMet-expressing tumour cell lines and one cMet-negative cell line. […] Cytotoxicity was determined as described in Example 8. […]

For a further assay, the system named is BT-20 (breast cancer). Described as above. The class given is cell-based. The procedure:
as §1
as §2, with “CA). […]” for “CA).”
as §3

The subject of assay [5] is cMet-positive non-small cell lung carcinoma (NSCLC). The settings on record: Phase II trials; cited from earlier work.
Another assay concerns HCC827 (lung cancer). Nature of the assay: In vitro cytotoxicity (cell growth inhibition, CellTiter-Glo). Type of assay: cell-based. The following applies: 4 days, Table 8.1. On the procedure:
as §2
(§8) The cell growth inhibition capabilities of anti-cMet ADCs comprising variant v17427 (HetFc, unmodified hinge) conjugated to Drug-Linker 002 by stochastic lysine conjugation at DARs ranging from DAR 2 to DAR 6 were determined in a panel of seven cMet-expressing cell lines. […]
as §3

Assay [6] relates to HCT-116 (colorectal cancer). Described as above. The following applies: 4 days, Table 8.1. The class given is cell-based. On the procedure: as §2, §8, §3
The target in assay [7] is T1, cMet on SNU-5 endogenous cMet-expressing cell line (Homo sapiens, UniProt P08581).
T1 construct: SNU-5 and H292 endogenous cMet-expressing cell lines; endogenous in cells; host or cells: SNU-5
T1 sequence (P08581 25-1390): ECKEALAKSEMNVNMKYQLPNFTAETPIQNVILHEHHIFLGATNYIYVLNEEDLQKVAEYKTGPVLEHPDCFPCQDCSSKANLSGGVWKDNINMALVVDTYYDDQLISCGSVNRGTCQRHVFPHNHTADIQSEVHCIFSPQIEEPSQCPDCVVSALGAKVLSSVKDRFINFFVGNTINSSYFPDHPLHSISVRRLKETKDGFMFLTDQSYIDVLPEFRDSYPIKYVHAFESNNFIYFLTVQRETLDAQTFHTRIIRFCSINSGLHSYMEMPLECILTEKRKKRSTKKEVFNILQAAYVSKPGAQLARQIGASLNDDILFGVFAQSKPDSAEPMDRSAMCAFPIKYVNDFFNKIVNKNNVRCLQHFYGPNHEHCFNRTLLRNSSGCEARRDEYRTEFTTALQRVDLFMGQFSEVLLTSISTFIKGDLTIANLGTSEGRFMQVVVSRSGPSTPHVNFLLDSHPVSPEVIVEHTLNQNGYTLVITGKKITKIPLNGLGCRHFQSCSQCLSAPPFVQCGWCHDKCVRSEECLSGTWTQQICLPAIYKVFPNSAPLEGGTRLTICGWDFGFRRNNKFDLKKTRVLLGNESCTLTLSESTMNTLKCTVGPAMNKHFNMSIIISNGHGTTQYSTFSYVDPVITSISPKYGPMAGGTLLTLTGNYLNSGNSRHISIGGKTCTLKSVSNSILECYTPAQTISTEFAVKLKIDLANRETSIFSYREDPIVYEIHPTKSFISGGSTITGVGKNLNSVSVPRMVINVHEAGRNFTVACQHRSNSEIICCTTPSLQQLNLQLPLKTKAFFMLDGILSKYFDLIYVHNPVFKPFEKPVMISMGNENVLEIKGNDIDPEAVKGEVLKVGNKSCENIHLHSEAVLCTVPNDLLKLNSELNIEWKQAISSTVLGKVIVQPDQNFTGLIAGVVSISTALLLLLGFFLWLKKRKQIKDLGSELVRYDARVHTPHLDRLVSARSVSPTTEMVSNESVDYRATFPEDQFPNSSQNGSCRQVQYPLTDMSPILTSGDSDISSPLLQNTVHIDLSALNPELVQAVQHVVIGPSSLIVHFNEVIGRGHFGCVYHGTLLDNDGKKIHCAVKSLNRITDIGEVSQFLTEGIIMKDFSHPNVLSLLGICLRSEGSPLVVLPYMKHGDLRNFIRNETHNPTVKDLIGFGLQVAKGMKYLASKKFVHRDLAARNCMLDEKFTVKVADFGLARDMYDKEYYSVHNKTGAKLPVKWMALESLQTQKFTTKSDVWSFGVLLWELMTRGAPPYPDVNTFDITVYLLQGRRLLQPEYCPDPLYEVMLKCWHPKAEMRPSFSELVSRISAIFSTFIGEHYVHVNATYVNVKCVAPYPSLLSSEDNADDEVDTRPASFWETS
The assay is described as follows: Cellular equilibrium binding by flow cytometry. The procedure: (§9) The on-cell binding capabilities of ADCs comprising anti-cMet antibodies with either a HomoFc or HetFc backbone (v32634 and v17427, respectively) conjugated to Drug-Linker 002 by stochastic lysine conjugation at approximately DAR 4 and DAR 6 were assessed for cMet binding using SNU-5 and H292 endogenous cMet-expressing cell lines by flow cytometry as described below. Unconjugated anti-RSV antibody palivizumab (v22277) was used as a control.
(§10) Briefly, cells were seeded at 50,000 cells/well in V-bottom 96-well plates and treated with antibody for 24 hours at 4° C. to prevent internalization. Following incubation, cells were washed and stained with anti-human IgG Fc AF647 conjugate (Jackson ImmunoResearch Laboratories, Inc., West Grove, PA; Cat. No. 109-605-098) at 4° C. for 30 min. Following incubation and washing, fluorescence was detected by flow cytometry on a BD LSRFortessa™ Cell Analyzer (BD Biosciences, Franklin Lake, NJ) with 1,000 minimum events collected per well. AF647/APC-A GeoMean (fluorescence signal geometric mean, proportional to anti-Human AF647 binding) in live cell population was plotted using GraphPad Prism Version 8 (GraphPad Software, San Diego, CA).
(§11) The on-cell binding capabilities of the following unconjugated antibodies and ADCs were assessed on SNU-5 and H292 endogenous cMet-expressing cell lines by flow cytometry: unconjugated variant v17427 (HetFc, unmodified hinge), and cysteine insertion variant v29001 (two cysteine insertions), lysine conjugated ADCs comprising variant v17427 and Drug-Linker 002 at DAR 4 or DAR 6, and cysteine conjugated ADCs comprising cysteine insertion variant insertion v29001 conjugated to Drug-Linker 001, Drug-Linker 003 or Drug-Linker 004 at DAR 2, 4 or 6, respectively. […] Cellular binding was determined as described in Example 10.
A general note: Flow cytometry measures light scatter and fluorescence of single cells or particles in a stream.

For assay [8], the target named is T2, cMet on H292 endogenous cMet-expressing cell line (Homo sapiens, UniProt P08581).
T2 construct: SNU-5 and H292 endogenous cMet-expressing cell lines; endogenous in cells; host or cells: H292
T2 sequence (P08581 25-1390): as above
Nature of the assay: Cellular equilibrium binding by flow cytometry. On the procedure: as §9, §10, §11

In another assay the test system is HT-29. Nature of the assay: Receptor-mediated internalization, high content imaging. The class given is cell-based. The following applies: 5 Hours 37° C.
A further assay concerns EBC-1. The description is as above. Type of assay: cell-based. The settings on record: 5 Hours 37° C.
The mark [9] stands for this setting: 24 hours at 4° C., Table 10.1, read-out: Apparent Kd.
The mark [10] stands for this setting: Table 13.1, read-out: Apparent Kd.

Turning to `CC[C@H](C)[C@@H]([C@@H](CC(=O)N1CCC[C@H]1[C@H](OC)[C@@H](C)C(=O)NS(=O)(=O)c1ccc(N)cc1)OC)N(C)C(=O)[C@@H](NC(=O)[C@H](C(C)C)N(C)C)C(C)C` [Compound 1, (S)-N-((3R,4S,5S)-1-((S)-2-((1R,2R)-3-((4-aminophenyl)sulfonamido)-1-methoxy-2-methyl-3-oxopropyl)pyrrolidin-1-yl)-3-methoxy-5-methyl-1-oxoheptan-4-yl)-2-((S)-2-(dimethylamino)-3-methylbutanamido)-N,3-dimethylbutanamide], the EC50 (usually the concentration that produces a half-maximal response) in the assay on SW48 (colorectal cancer) was found to be 43.6 nM; in the assay on H292 (lung carcinoma) (Homo sapiens, NCI-H292, 96 h, H292, 4 days, Table 9.1), 7.42 nM; in the assay on H292 (lung carcinoma) (Homo sapiens, NCI-H292, 96 h, H292, 4 days, Table 12.1) it was 7.42 nM; with H292 (lung carcinoma) (Homo sapiens, NCI-H292, read-out: EC50 (nM) - DAR corrected, H292, 4-5 days, Table 6.1), 22.2 nM; in assay [1] (Homo sapiens, EBC-1, 96 h), 26.3 nM; in [1] (Homo sapiens, EBC-1, read-out: EC50 (nM) - DAR corrected) it was 44.4 nM. Besides, the EC50 is 22.7 nM in [2] (Homo sapiens, NCI-H1975, 96 h); 40 nM in assay [3] (Homo sapiens, SNU-5, 96 h, Table 9.1); 40.1 nM in assay [3] (Homo sapiens, SNU-5, 96 h, Table 12.1); 44.8 nM in assay [4]; 39.2 nM in the assay with BT-20 (breast cancer) (Homo sapiens, BT-20, read-out: EC50 (nM) - DAR corrected).

On to telisotuzumab vedotin, for which the anti-tumour activity entry in assay [5] is reported as “anti-tumour activity”.

“V22277-MCvcPABC-MMAE DAR 4.0: palivizumab (v22277) conjugated to MCvcPABC-MMAE at DAR 4, control [reference compound]”: the EC50 in the assay with H292 (lung carcinoma) (H292, 4 days, Table 8.1, read-out: EC50) was over 10 nM; in [1] (EBC-1, 4 days, Table 8.1, read-out: EC50), over 10 nM; in assay [2] (H1975, 4 days, Table 8.1, read-out: EC50) it was over 10 nM; in [3] (Table 8.1, read-out: EC50), over 10 nM; with HCC827 (lung cancer), over 10 nM; in [6], over 10 nM. The EC50 in the assay on BT-20 (breast cancer) (BT-20, 4 days, Table 8.1, read-out: EC50) is over 10 nM.

As for “v22277: anti-RSV antibody, palivizumab, non-targeted control [reference compound]”, the Kd in assay [7] (setting [9]), in assay [7] (setting [10]), in assay [8] (setting [9]) and in assay [8] (setting [10]) was over 50 nM throughout. The “Mean Object Fluorescence (Internalized)” value in the assay on HT-29 (0.3 nM) is listed as 2,746; in the assay on HT-29 (1.9 nM), 2,363; in the assay on HT-29 (12 nM), 2,331; with HT-29 (70 nM) it was 2,290; with EBC-1 (0.3 nM), 2,686; with EBC-1 (1.9 nM) it was 3,054. Further, the “Mean Object Fluorescence (Internalized)” value in the assay on EBC-1 (12 nM) is listed as 1,989; in the assay on EBC-1 (70 nM), 2,605.
